Counter-ions that a name gives are not always drawn.

The target of this experiment is T1, mouse TLR7 (Mus musculus, UniProt P58681).
T1 construct: expressed in transfected cells
T1 sequence (P58681 27-1050): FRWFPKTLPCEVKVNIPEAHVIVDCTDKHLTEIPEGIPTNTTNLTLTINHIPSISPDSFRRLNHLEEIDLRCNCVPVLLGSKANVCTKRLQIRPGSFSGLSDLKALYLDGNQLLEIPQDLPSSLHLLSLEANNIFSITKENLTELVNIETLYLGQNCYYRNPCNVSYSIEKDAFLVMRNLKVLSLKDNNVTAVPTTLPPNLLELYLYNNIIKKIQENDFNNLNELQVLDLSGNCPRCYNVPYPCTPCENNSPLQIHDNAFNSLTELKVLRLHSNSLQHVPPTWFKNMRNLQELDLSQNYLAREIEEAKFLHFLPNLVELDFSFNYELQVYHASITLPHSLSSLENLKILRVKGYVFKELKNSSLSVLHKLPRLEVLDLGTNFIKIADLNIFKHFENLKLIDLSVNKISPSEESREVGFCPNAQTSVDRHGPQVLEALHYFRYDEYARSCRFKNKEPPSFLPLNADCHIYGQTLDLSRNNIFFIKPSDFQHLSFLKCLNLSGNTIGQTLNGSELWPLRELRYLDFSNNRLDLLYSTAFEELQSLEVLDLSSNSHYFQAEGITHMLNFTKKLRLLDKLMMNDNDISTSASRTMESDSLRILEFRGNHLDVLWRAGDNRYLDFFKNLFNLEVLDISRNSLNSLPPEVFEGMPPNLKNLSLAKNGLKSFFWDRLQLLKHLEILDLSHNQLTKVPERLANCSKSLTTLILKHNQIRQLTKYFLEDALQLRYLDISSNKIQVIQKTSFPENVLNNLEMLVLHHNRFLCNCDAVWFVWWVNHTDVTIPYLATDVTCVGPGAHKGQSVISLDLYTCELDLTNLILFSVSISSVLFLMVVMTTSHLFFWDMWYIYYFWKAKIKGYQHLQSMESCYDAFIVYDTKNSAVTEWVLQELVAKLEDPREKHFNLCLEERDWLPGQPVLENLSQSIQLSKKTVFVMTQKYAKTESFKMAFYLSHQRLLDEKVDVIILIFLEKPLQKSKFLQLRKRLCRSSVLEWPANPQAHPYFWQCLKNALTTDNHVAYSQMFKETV
Nature of the experiment: TLR7/8 reporter assay (HEK293, NFκB Nanoluc luciferase reporter), mouse TLR7. The class given is cell-based. The note with it: 24-hour incubation; read-out: mTLR7 EC50. As to the method: HEK293 cells (ATCC, #CRL-1573) were co-transfected with an expression vector having a nucleotide sequence encoding a TLR (human TLR7, human TLR8 or mouse TLR7) protein and a Nanoluc PEST luciferase reporter vector having an NFκB response element sequence (Genbank: JQ513377 bases 33 to 84) integrated therein. Thereafter, the transfected cells were cultured in DMEM (Sigma-Aldrich, #D5796-500 mL) containing Geneticin (Gibco, #10131-027) at a final concentration of 800 μg/mL, Hygromycin B (Invitrogen, #10687010) at a final concentration of 500 μg/mL, penicillin streptomycin (Gibco, #15070-063) at a final concentration of 1% and a 10% fetal bovine serum (FBS) (HyClone, #SH30084.03) to obtain a stable cell line for expression.
To reporter cells obtained above, DMEM containing 10% FBS was added to prepare a suspension of 1×10^5 cells/mL. The suspension was added to the wells of a 384-well white plate coated with collagen I (hereinafter referred to as “384-well plate”, Corning, #356703) at a rate of 20 μL per well. The cells were cultured in the conditions of 37° C. and 5% CO2, overnight (18 hours) and allowed to adhere to the plate. A test sample was dissolved in DMSO. The solution was diluted by adding DMEM medium containing 10% FBS to the solution such that the concentration becomes 5-fold as high as a final concentration. The diluted DMEM medium was added to the wells of the 384-well plate at a ratio of 5 μL/well. After the medium was further incubated in the conditions of 37° C. and 5% CO2 for 24 hours, the plate was taken out and allowed to stand still at room temperature for 10 minutes. Thereafter, chemiluminescence was measured using Nano-Glo Luciferase Assay System (Promega, #N1120) and EnVision 2104 (PerkinElmer) plate reader. A dose-response curve was prepared for each test sample and the EC50 value was obtained as a concentration at 50% of the maximum signal. In the table, hTLR7 represents human TLR7 and hTLR8 represents human TLR8; and mTLR7 represents mouse TLR7. A data item attached with an asterisk (*) indicates the result of 7 hour-incubation and other data items are the results of 24-hour incubation.
For orientation: In a reporter assay the amount or activity of a reporter protein is the signal.
Turning to `CCCCCSc1nc(N)nc2ccn(Cc3ccc(CN4CCNCC4)cc3OC)c12` [Ex4, 5-({2-methoxy-4-[(piperazin-1-yl)methyl]phenyl}methyl)-4-(pentylsulfanyl)-5H-pyrrolo[3,2-d]pyrimidin-2-amine], the concentration for a half-maximal effect (EC50) amounted to 39.9 nM. As for `CCCCCNc1nc(N)nc2ccn(Cc3ccc(CN4CCNC[C@H]4CF)cc3OC)c12` [Ex1, 5-[(4-{[(2S)-2-(fluoromethyl)piperazin-1-yl]methyl}-2-methoxyphenyl)methyl]-N^4-pentyl-5H-pyrrolo[3,2-d]pyrimidine-2,4-diamine], the EC50 amounted to 2.92 nM.

In the case of `COc1cc(CN2CCNC[C@H]2CF)ccc1Cn1ccc2nc(N)nc(SCc3cc(C)on3)c21` [Ex11], the EC50 stood at 9.2 nM. The value for `CCCCCSc1nc(N)nc2ccn(Cc3ccc(CN4CCC[C@H]4CO)cc3OC)c12` [Ex5, {(2S)-1-[(4-{[2-amino-4-(pentylsulfanyl)-5H-pyrrolo[3,2-d]pyrimidin-5-yl]methyl}-3-methoxyphenyl)methyl]pyrrolidin-2-yl}methanol] was 26.7 nM; that for `CCCCCNc1nc(N)nc2c(Cl)cn(Cc3ccc(CN4CCC[C@H]4CO)cc3OC)c12` [Ex6, {(2S)-1-[(4-{[2-amino-7-chloro-4-(pentylamino)-5H-pyrrolo[3,2-d]pyrimidin-5-yl]methyl}-3-methoxyphenyl)methyl]pyrrolidin-2-yl}methanol] was 10.1 nM; that for `CCCCCNc1nc(N)nc2ccn(Cc3ccc(CC4CCNCC4)cc3OC)c12` [Ex9, 5-({2-methoxy-4-[(piperidin-4-yl)methyl]phenyl}methyl)-N^4-pentyl-5H-pyrrolo[3,2-d]pyrimidine-2,4-diamine] was 4.81 nM. For the compound `CCCCCNc1nc(N)nc2c(Cl)cn(Cc3ccc(CN4CCC[C@H]4C(C)(C)O)cc3OC)c12` [Ex18], the EC50 was determined as 13.9 nM. In the case of `CCCCCNc1nc(N)nc2ccn(Cc3ccc(CNCC4CCC4)cc3OC)c12` [Ex12], the concentration for a half-maximal effect (EC50) was 3.58 nM. Turning to `CCCCCSc1nc(N)nc2ccn(Cc3ccc(CN4CC[C@@H](CN)C4)cc3OC)c12` [Ex15], the concentration for a half-maximal effect (EC50) is 111 nM.

For the compound `CCCCCSc1nc(N)nc2ccn(Cc3ccc(CN4CCC(O)CC4)cc3OC)c12` [Ex14], the concentration for a half-maximal effect (EC50) was found to be 27.3 nM. As to `CCCCCNc1nc(N)nc2c(Cl)cn(Cc3ccc(CN4CC[C@H]4CO)cc3OC)c12` [Ex17], the EC50 was 7.11 nM. With `CCCCCNc1nc(N)nc2ccn(Cc3ccc(CNC4CC4)cc3OC)c12` [Ex3, 5-({4-[(cyclopropylamino)methyl]-2-methoxyphenyl}methyl)-N^4-pentyl-5H-pyrrolo[3,2-d]pyrimidine-2,4-diamine], the half-maximal effective concentration (EC50) came to 6.17 nM. Consider `CCCCCNc1nc(N)nc2ccn(Cc3ccc(CN4CCN[C@@H](CF)C4)cc3OC)c12` [Ex2, 5-[(4-{[(3R)-3-(fluoromethyl)piperazin-1-yl]methyl}-2-methoxyphenyl)methyl]-N^4-pentyl-5H-pyrrolo[3,2-d]pyrimidine-2,4-diamine (trifluoroacetic acid) salt], for which the concentration for a half-maximal effect (EC50) was determined as 5.36 nM. Regarding `CCCCCNc1nc(N)nc2cc(C)n(Cc3ccc(CN4CCNCC4)cc3OC)c12` [Ex8, 5-({2-methoxy-4-[(piperazin-1-yl)methyl]phenyl}methyl)-6-methyl-N^4-pentyl-5H-pyrrolo[3,2-d]pyrimidine-2,4-diamine hydrochloride], the EC50 worked out at 23.5 nM. On to `CCCCCNc1nc(N)nc2c(Br)cn(Cc3ccc(CN4CCC[C@H]4CO)cc3OC)c12` [Ex7, {(2S)-1-[(4-{[2-amino-7-bromo-4-(pentylamino)-5H-pyrrolo[3,2-d]pyrimidin-5-yl]methyl}-3-methoxyphenyl)methyl]pyrrolidin-2-yl}methanol], for which the EC50 was determined as 21.5 nM. As for `CCCCCNc1nc(N)nc2ccn(Cc3ccc(CN4CCNC[C@@H]4CF)cc3OC)c12` [Ex10, 5-[(4-{[(2R)-2-(fluoromethyl)piperazin-1-yl]methyl}-2-methoxyphenyl)methyl]-N^4-pentyl-5H-pyrrolo[3,2-d]pyrimidine-2,4-diamine], the EC50 is 8.75 nM. As to `CCCCCSc1nc(N)nc2ccn(Cc3ccc(CN4CC[C@H]4CO)cc3OC)c12` [Ex13], the EC50 is 17.4 nM.

In general, EC50 refers to the concentration at which the effect is half-maximal.

Source of the values: patent publication US12390536B2, “Antibody-drug complex containing toll-like receptor 7/8 dual agonist compound” (ASTELLAS PHARMA INC., priority 2022, dated 2025).
